In patent US20240374612A1, “IMIDAZOBENZO[…] TREATMENT OF COGNITIVE AND MOOD SYMPTOMS” (UWM Research Foundation, Inc., priority 2021, published 2024):

How the values were obtained:
α5β3γ2 GABAA receptor = target: T1, α5β3γ2 GABAA receptor (Homo sapiens, UniProt P18507+P31644); experiment: Electrophysiology in transfected cells (IonWorks Barracuda), PAM effect on current induced by 5 μM GABA; format: cell-based
T1 construct: Full-length cDNAs for GABAA receptor subtypes are transfected into the human embryonic kidney cell line HEK-293T; expressed in transfected cells; host or cells: human mammalian cells (HEK-293T per Procedure B)
Experimental: (§1) Procedure B: Full-length cDNAs for GABAA receptor subtypes are transfected into the human embryonic kidney cell line HEK-293T. All subtypes are rat clones except for α2, which is a human clone. Cells are patch-clamped at −50 mV in the whole-cell recording configuration. GABA is diluted into the bath and compounds are dissolved in DMSO and diluted into bath solution. Solutions containing GABA or GABA+ compounds are applied to cells for 5 s. Currents are recorded with an Axon 200B patch clamp amplifier. Data is normalized data current expressed as a percentage of the response to GABA alone for each cell.
(§2) Electrophysiological Characterization of GL-III-68 by Procedure B: Human mammalian cells are transfected with human […] GABAA receptors. Cells are incubated with GL-III-68 at a range of concentrations from 0.03 μM to 100 μM. Currents are induced by stimulation with 5 μM GABA and recorded using the IonWorks Barracuda® test platform. Current is normalized to the current induced by 5 μM of GABA in the absence of any allosteric modulator. PAM effect of at different subtypes of GABA^A receptor. % of current was calculated relatively to current produced by 5 μM GABA alone (set to 100%) (FIG. 21). EC50 results are shown below.

α1β3γ2 GABAA receptor = target: T2, α1β3γ2 GABAA receptor (Homo sapiens, UniProt P14867+P18507); experiment: as above; format: cell-based
T2 construct: Full-length cDNAs for GABAA receptor subtypes are transfected into the human embryonic kidney cell line HEK-293T; expressed in transfected cells; host or cells: human mammalian cells (HEK-293T per Procedure B)
Experimental: as §1, §2

α3β3γ2 GABAA receptor = target: T3, α3β3γ2 GABAA receptor (Homo sapiens, UniProt P18507+P34903); experiment: as above; format: cell-based
T3 construct: Full-length cDNAs for GABAA receptor subtypes are transfected into the human embryonic kidney cell line HEK-293T; expressed in transfected cells; host or cells: human mammalian cells (HEK-293T per Procedure B)
Experimental: as §1, §2

α2β3γ2 GABAA receptor = target: T4, α2β3γ2 GABAA receptor (Homo sapiens, UniProt P18507+P47869); experiment: as above; format: cell-based
T4 construct: Full-length cDNAs for GABAA receptor subtypes are transfected into the human embryonic kidney cell line HEK-293T; expressed in transfected cells; host or cells: human mammalian cells (HEK-293T per Procedure B)
Experimental: as §1, §2

[1] = tested on: C57/Bl6 mice subjected to chronic restraint stress (working memory deficit); experiment: Y-maze alternation task after chronic restraint stress (CRS); format: in vivo; conditions: 10 mg/kg i.p., acute, 30 min before testing, vs CRS vehicle
Experimental: Young Animals and chronic stress procedure: C57/Bl6 mice, males and females at 8 weeks old and are kept in normal housing conditions (12 h light ON cycle starting at 7 am/water and food ad libitum) for one week. During this week, animals are single housed and handled to reduce the anxiety-like response toward the experimenter. To induce a working memory deficit, mice are subjected to a chronic restraint stress protocol (CRS). They are placed in a 50 mL Falcon® tube, twice a day, for 1 hour during their diurnal cycle. The time of occurrence of the stress is randomized every day to avoid predictability. CRS is not applied on testing days. Y-maze test occurs 15 hours minimum after the last stressor.
Protocol: Mice are first habituated to the Y-maze apparatus and distal cues during 2 consecutive days over a 10 min free exploration session (one session per day). The next day, animals perform a training session consisting in seven successive trials separated by a 30 s inter-trial interval (ITI); during this training session, mice are familiarized with the experimental procedure (opening and closing of the doors and confinement into the goal arms). For each trial, mice remain in the start-box for a 30 s ITI. Then, the door is opened and the mouse is allowed to enter freely one of the two goal arms; the chosen arm is closed and the choice is recorded. After a 30 s confinement period into the chosen arm, the mouse is removed and brought back to the start-box for a second trial identical to the first one and this procedure is repeated over the series of trials.
The same general procedure used in the training session is implemented 24 h later, except that the ITI was lengthened to 90 s. For this experiment, animals are acutely injected i.p. with vehicle or drug, 30 minutes before the beginning of the test. To dissociate memory deficits from an eventual progressive loss of motivation to alternate over the series, an 8th trial is added to the series which is separated from the 7th trial by a shorter ITI (5 s). All animals failing to alternate at the 8th trial are excluded. The mean alternation rate is calculated and is expressed in percentage (number of alternation done by the animal/total number of alternation possible×100)±SEM. The percentage of alternation during the entire task is considered as an index of working memory performance (50% of being a random alternation rate). Factorial ANOVA is applied to the data to reveal differences between groups. If the ANOVA is significant for group effect (p<0.05), Scheffe post-hoc analysis are conducted to identify which groups are different from each other.
Drug preparation and administration: All drugs are diluted in a vehicle solution containing 85% H2O, 14% propylene glycol (Sigma Aldrich) and 1% Tween 80 (Sigma Aldrich). Working solutions are prepared at a concentration of 10 mg/mL and administered i.p. adjusted to the body weight of each animal. Doses used are either 1, 5, 10 or 20 mg/kg. For all Y maze experiments, animals are acutely injected i.p. with vehicle or drug, 30 minutes before the beginning of the test.

T2 sequence (P14867 28-456): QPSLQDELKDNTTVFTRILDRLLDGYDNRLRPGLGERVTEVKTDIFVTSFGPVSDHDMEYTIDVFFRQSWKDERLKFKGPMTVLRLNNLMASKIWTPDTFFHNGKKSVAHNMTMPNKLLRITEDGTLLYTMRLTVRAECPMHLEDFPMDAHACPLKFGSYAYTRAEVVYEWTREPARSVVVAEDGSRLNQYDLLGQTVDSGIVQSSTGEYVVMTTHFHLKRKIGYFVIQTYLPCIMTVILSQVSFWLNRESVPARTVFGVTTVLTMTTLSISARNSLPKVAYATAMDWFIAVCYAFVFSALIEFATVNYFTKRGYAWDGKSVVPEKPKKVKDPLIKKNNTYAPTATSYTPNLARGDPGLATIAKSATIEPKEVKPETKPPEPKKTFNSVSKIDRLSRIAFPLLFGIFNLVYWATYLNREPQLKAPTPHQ
T2 sequence (P28472 26-473 partner): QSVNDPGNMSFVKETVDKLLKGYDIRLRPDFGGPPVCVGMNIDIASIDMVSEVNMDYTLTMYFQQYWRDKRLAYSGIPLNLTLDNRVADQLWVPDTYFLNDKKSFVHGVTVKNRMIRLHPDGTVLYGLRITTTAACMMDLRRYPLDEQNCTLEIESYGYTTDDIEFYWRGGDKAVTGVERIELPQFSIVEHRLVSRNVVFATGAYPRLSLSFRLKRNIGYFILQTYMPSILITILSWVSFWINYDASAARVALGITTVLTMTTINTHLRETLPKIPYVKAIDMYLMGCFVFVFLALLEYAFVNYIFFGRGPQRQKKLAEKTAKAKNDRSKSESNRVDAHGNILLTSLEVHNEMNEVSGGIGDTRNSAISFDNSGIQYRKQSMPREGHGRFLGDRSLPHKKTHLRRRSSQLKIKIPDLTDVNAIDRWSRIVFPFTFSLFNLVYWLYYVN
T2 sequence (P18507 40-475): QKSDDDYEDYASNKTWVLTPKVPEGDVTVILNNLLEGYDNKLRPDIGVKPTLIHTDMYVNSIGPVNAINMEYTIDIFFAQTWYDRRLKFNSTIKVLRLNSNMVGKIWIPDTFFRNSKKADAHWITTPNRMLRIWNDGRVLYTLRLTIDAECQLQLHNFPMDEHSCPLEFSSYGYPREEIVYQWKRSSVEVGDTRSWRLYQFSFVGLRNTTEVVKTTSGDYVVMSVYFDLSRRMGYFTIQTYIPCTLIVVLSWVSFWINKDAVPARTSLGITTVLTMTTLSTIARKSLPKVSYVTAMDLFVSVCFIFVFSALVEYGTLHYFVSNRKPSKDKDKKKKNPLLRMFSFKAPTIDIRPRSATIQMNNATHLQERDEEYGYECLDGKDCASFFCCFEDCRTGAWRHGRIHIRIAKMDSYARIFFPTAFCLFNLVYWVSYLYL
T4 sequence (P47869 29-451): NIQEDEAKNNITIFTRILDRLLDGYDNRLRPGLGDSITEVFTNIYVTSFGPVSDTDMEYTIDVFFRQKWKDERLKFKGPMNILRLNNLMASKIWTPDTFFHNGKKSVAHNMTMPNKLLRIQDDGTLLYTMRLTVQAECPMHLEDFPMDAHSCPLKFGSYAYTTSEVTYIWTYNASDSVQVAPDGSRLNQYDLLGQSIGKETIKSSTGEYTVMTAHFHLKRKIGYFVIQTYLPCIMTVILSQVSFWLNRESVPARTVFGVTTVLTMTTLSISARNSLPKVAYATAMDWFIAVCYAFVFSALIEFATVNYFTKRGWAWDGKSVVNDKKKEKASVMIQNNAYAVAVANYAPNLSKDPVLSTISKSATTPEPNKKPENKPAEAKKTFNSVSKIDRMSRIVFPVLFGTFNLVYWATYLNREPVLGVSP
T4 sequence (P28472 26-473 partner): as the sequence (P28472 26-473 partner) above
T4 sequence (P18507 40-475): as the sequence (P18507 40-475) above
T3 sequence (P34903 29-492): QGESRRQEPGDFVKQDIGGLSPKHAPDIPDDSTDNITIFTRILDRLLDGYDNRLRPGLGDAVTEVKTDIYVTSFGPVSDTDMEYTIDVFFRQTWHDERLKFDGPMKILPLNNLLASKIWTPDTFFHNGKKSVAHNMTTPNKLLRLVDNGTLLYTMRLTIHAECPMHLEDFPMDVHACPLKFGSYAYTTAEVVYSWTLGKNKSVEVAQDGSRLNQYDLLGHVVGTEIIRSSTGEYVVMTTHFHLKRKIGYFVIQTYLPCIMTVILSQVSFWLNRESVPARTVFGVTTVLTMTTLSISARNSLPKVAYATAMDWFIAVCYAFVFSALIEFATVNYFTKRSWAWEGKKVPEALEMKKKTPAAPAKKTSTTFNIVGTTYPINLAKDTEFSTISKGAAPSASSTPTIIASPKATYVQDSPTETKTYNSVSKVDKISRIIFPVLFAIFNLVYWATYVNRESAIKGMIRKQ
T3 sequence (P28472 26-473 partner): as the sequence (P28472 26-473 partner) above
T3 sequence (P18507 40-475): as the sequence (P18507 40-475) above
T1 sequence (P31644 32-462): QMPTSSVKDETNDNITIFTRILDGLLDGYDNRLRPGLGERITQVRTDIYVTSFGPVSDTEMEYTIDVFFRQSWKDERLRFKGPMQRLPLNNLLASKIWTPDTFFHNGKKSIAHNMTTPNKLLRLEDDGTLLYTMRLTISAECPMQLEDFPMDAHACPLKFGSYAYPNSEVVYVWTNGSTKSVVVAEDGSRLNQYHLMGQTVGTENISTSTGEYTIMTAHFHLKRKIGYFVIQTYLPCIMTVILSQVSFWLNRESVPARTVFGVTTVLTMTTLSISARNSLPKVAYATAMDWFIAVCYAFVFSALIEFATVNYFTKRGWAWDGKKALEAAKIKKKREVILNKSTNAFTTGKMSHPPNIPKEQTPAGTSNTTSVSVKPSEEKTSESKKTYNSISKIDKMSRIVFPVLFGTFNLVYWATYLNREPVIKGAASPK
T1 sequence (P28472 26-473 partner): as the sequence (P28472 26-473 partner) above
T1 sequence (P18507 40-475): as the sequence (P18507 40-475) above

CCNC(=O)c1ncn2c1[C@@H](C)N=C(c1ccccc1F)c1cc(C3CC3)ccc1-2 [GL-III-68, (R)-8-Cyclopropyl-N-ethyl-6-(2-fluorophenyl)-4-methyl-4H-benzo[f]imidazo[1,5-a][1,4]diazepine-3-carboxamide]
EC50 (α5β3γ2 GABAA receptor): < 0.03 µM | Emax (α5β3γ2 GABAA receptor; α5β3γ2, % of current produced by 5 μM GABA alone (set to 100%)): 188% | EC50 (α1β3γ2 GABAA receptor): 10.7 µM | Emax (α1β3γ2 GABAA receptor; α1β3γ2, % of current produced by 5 μM GABA alone (set to 100%)): 188% | EC50 (α3β3γ2 GABAA receptor): 3.52 µM | Emax (α3β3γ2 GABAA receptor; α3β3γ2, % of current produced by 5 μM GABA alone (set to 100%)): 209% | EC50 (α2β3γ2 GABAA receptor): 1.91 µM | Emax (α2β3γ2 GABAA receptor; α2β3γ2, % of current produced by 5 μM GABA alone (set to 100%)): 224% | reversal of CRS-induced reduction of alternation rate (Y-maze) [1]: reversed
